# Values joined by “and” are separate entries in the source; they are usually repeats but may differ in a detail not shown here. Identical values can stand only once.
# Tested on: norepinephrin release in the rat prefrontal cortex
# Assay: Microdialysis: norepinephrine release in prefrontal cortex after I.P. administration
# Format: in vivo
# Conditions: for NOREPINEPHRIN in dialysate, MEAN / NOREPINEPHRIN in dialysate, individual animals: Citalopram 10 mg/kg I.P.
# Protocol: The aim of the study was to evaluate, using microdialysis, the effects of an intraperitoneal (I.P.) administration in rats of three different doses of SON-117 on dopamine and its metabolites, serotonin and its metabolite (5-HIAA), and norepinephrine levels in prefrontal cortex.
# Thirty-two adult male Wistar rats were used for the whole study (4 groups of eight animals planned for the study, Table 1).
# Surgery was performed on rats weighing about 300 g at the beginning of the experiments. Rats were anaesthetized with Ketamine (50 mg/kg) & Xylazine (15 mg/kg) by intramuscular administration. The animals were placed in a stereotaxic apparatus in the flat-skull position at a constant setting of −3.3 mm between ear bars and the incisor bar. The animals were treated with a local anesthesic (xylocaine 1%, Astra Zeneca) and an analgesic (Temgesic, from Schering Plough, 0.05 mg/kg, s.c.). A rostrocaudal midline incision was made with a lancet to expose the dorsal skull surface. The “stereotaxic zero” was defined by the Bregma in accordance with Paxinos and Watson's atlas (1986). A hole was drilled in the skull with a drill and the meninges were pierced with a sterile needle to implant a CMA12 guide cannula which later received the dialysis probe.
# Coordinates used for implanting guide cannula in prefrontal cortex from Bregma were anteroposterior 3.7 mm, mediolateral 0.8 mm, and dorsoventral −2 mm (top of the probe was at −5 mm). The guide cannula was fixed to the skull with two stainless steel screws (1.88 mm outside diameter) anchored. An application of dental cement was added. A plastic collar allowed each animal to be tethered to a Swivel assembly of the CMA 120 awake animal system. Following surgery, rats were kept in individual cages and allowed to recover for a minimum of 3-5 days before the experimentation. The rats were handled and put in plastic bowl for 10 min at least every day to habituate the animals to their new environment for the dialysis. An I.P. administration with saline was also performed every day.
# Dialysis probes (CMA12/3 mm, membrane, 20 kD cut-off, Carnegie Medicine, Stockholm, Sweden), were carefully washed before inserting into the guide cannula. The wash was performed with the artificial cerebrospinal fluid (aCSF) medium (NaCl 147 mM, KCl 2.7 mM, CaCl2 1.2 mM, MgCl2 0.85 mM) at room temperature. The dialysis system was then equilibrated at 20° C. at a perfusion rate of 1 μl/min with a Carnegie pump (CMA100). All catheters (FEP tubing, internal volume of 1.2 μl/10 cm, and tubing adaptors) used for microdialysis were treated in the same conditions.
# The probes duly prepared were inserted into the guide cannula and the CMA120 Swivel assembly secured to the animal using a plastic collar. Flow through the dialysis probe with aCSF was maintained at a rate of 1 μl/min during the whole experimentation. The first four fractions (corresponding to 2 hours) were discarded to avoid the effects of parenchymal disturbance and to ensure that an approximate steady-state level was reached. Fractions were then collected over a period of 8.5 h during which time the animals remained quiet. The dialysates were automatically collected with an autosampler (microfraction collector CMA 140, Carnegie Medicin) and stored at −80° C. until analysis. […] Perfusion was then maintained for 7 hours with aCSF. The dialysates (30 μl) were collected into 300 μl vials, transferred into dry ice and then kept frozen (−80° C.) until analysis. Frozen samples were shipped to a partner for analysis. At the end of the microdialysis study, a PBS with colored ink was perfused through the probe in order to visualize the dialyzed area.
# Catecholamine assay: Concentrations of dopamine, DOPAC, HVA, 5-HIAA, 5-HT, and norepinephrin were determined for each sample by HPLC coupled with electrochemical detection. […]
compound,measurement,setting,value
"CN(C)CCCC1(c2ccc(F)cc2)OCc2cc(C#N)ccc21 (stereo not shown) [Citalopram, citalopram, reference compound]","NOREPINEPHRIN in dialysate, MEAN",T0-T30 min,82.58 % of respective basal
same,"NOREPINEPHRIN in dialysate, MEAN",T30-T1 h,78.71 % of respective basal
same,"NOREPINEPHRIN in dialysate, individual animals",T30-T1 h,63.38 % of respective basal and 110.18 % of respective basal and 80.74 % of respective basal and 67.88 % of respective basal and 82.89 % of respective basal and 87.03 % of respective basal and 121.77 % of respective basal and 15.77 % of respective basal
same,"NOREPINEPHRIN in dialysate, MEAN",T1 h 30-T2 h,79.06 % of respective basal
same,"NOREPINEPHRIN in dialysate, individual animals",T1 h 30-T2 h,61.03 % of respective basal and 124.09 % of respective basal and 72.92 % of respective basal and 60.40 % of respective basal and 82.59 % of respective basal and 82.64 % of respective basal and 134.98 % of respective basal and 13.8 % of respective basal
same,"NOREPINEPHRIN in dialysate, MEAN",T1 h-T1 h 30,79.69 % of respective basal
same,"NOREPINEPHRIN in dialysate, individual animals",T1 h-T1 h 30,76.17 % of respective basal and 109.19 % of respective basal and 82.90 % of respective basal and 61.59 % of respective basal and 83.93 % of respective basal and 87.19 % of respective basal and 123.99 % of respective basal and 12.53 % of respective basal
same,"NOREPINEPHRIN in dialysate, MEAN",T2 h 30-T3 h,71.56 % of respective basal
same,"NOREPINEPHRIN in dialysate, individual animals",T2 h 30-T3 h,59.14 % of respective basal and 93.64 % of respective basal and 64.43 % of respective basal and 55.24 % of respective basal and 91.72 % of respective basal and 74.05 % of respective basal and 121.10 % of respective basal and 13.15 % of respective basal
same,"NOREPINEPHRIN in dialysate, MEAN",T2 h-T2 h 30,76.38 % of respective basal
same,"NOREPINEPHRIN in dialysate, individual animals",T2 h-T2 h 30,73.97 % of respective basal and 105.30 % of respective basal and 76.17 % of respective basal and 58.36 % of respective basal and 86.59 % of respective basal and 74.01 % of respective basal and 122.28 % of respective basal and 14.33 % of respective basal
same,"NOREPINEPHRIN in dialysate, MEAN",T3 h 30-T4 h,75.03 % of respective basal
same,"NOREPINEPHRIN in dialysate, individual animals",T3 h 30-T4 h,60.36 % of respective basal and 105.62 % of respective basal and 79.83 % of respective basal and 62.35 % of respective basal and 87.18 % of respective basal and 69.08 % of respective basal and 122.62 % of respective basal and 13.22 % of respective basal
same,"NOREPINEPHRIN in dialysate, MEAN",T3 h-T3 h 30,71.85 % of respective basal
same,"NOREPINEPHRIN in dialysate, individual animals",T3 h-T3 h 30,59.65 % of respective basal and 96.31 % of respective basal and 77.47 % of respective basal and 56.34 % of respective basal and 86.44 % of respective basal and 66.43 % of respective basal and 119.71 % of respective basal and 12.42 % of respective basal
same,"NOREPINEPHRIN in dialysate, MEAN",T4 h 30-T5 h,79.44 % of respective basal
same,"NOREPINEPHRIN in dialysate, individual animals",T4 h 30-T5 h,76.82 % of respective basal and 116.23 % of respective basal and 73.73 % of respective basal and 66.68 % of respective basal and 84.54 % of respective basal and 70.81 % of respective basal and 127.26 % of respective basal and 19.47 % of respective basal
same,"NOREPINEPHRIN in dialysate, MEAN",T4 h-T4 h 30,79.54 % of respective basal
same,"NOREPINEPHRIN in dialysate, individual animals",T4 h-T4 h 30,77.6 % of respective basal and 102.09 % of respective basal and 77.48 % of respective basal and 63.90 % of respective basal and 92.86 % of respective basal and 82.33 % of respective basal and 128.7 % of respective basal and 11.39 % of respective basal
same,"NOREPINEPHRIN in dialysate, MEAN",T5 h 30-T6 h,81.93 % of respective basal
same,"NOREPINEPHRIN in dialysate, individual animals",T5 h 30-T6 h,48.16 % of respective basal and 103.46 % of respective basal and 105.10 % of respective basal and 86.55 % of respective basal and 85.91 % of respective basal and 79.07 % of respective basal and 122.12 % of respective basal and 25.1 % of respective basal
same,"NOREPINEPHRIN in dialysate, MEAN",T5 h-T5 h 30,77.65 % of respective basal
same,"NOREPINEPHRIN in dialysate, individual animals",T5 h-T5 h 30,88.27 % of respective basal and 76.54 % of respective basal and 75.84 % of respective basal and 77.15 % of respective basal and 75.13 % of respective basal and 134.83 % of respective basal and 15.76 % of respective basal
same,"NOREPINEPHRIN in dialysate, MEAN",T6 h 30-T7 h,79.84 % of respective basal
same,"NOREPINEPHRIN in dialysate, individual animals",T6 h 30-T7 h,52.47 % of respective basal and 107.42 % of respective basal and 80.22 % of respective basal and 89.35 % of respective basal and 83.18 % of respective basal
same,"NOREPINEPHRIN in dialysate, MEAN",T6 h-T6 h 30,78.38 % of respective basal
same,"NOREPINEPHRIN in dialysate, individual animals",T6 h-T6 h 30,51.36 % of respective basal and 106.33 % of respective basal and 79.91 % of respective basal and 87.03 % of respective basal and 82.07 % of respective basal and 79.77 % of respective basal and 119.62 % of respective basal and 20.91 % of respective basal
same,"NOREPINEPHRIN in dialysate, MEAN",T-30 min-T0 (pre-dose),95.22 % of respective basal
same,"NOREPINEPHRIN in dialysate, MEAN",T-1 h 30-T-1 h (pre-dose),92.87 % of respective basal
same,"NOREPINEPHRIN in dialysate, MEAN",T-1 h-T-30 min (pre-dose),109.53 % of respective basal
same,"NE concentration in prefrontal cortex, significant and stable slight decrease","citalopram 10 mg/kg I.P., from 0.5 h to 7 h after administration",72%

# From patent US20250109127A1, “METHODS OF USE OF PHENOXYPROPYLAMINE COMPOUNDS TO TREAT DEPRESSION” (Minerva Neurosciences, Inc., priority 2013, published 2025)
